Test results as given in patent US12252701B2, “Chimeric antigen receptor T cell therapy” (KITE PHARMA, INC., priority 2020, dated 2025).
Where two headings read alike, the source gives them in different places.

Assays:
[1] = system: Nalm-6 luc; assay: CAR-T cell killing assay (luciferase viability of tumor cells)
[2] = system: CAR-T cells; assay: CAR-T cell expansion assay (KIP-1 or CD3/CD28 stimulation); details: for % viability: CD3/CD28
Method: (§1) 96-well plates were coated with 100 μl of KIP-1 antibody per well at 1 μg/ml in PBS and plates were incubated at 4° C. overnight. CAR-T cells were thawed and were rested in ImmunoCult expansion medium and incubated overnight at 37° C. Cells were then counted and resuspended at 2 million cells/ml and seed at 200,000 cells per well in 100 μl of expansion medium with 10 ng/ml recombinant IL2. For groups treated with KIP-1, 100 μl of expansion medium were added with 2× final drug dilutions. For CD3/CD28 treated groups, 100 μl of expansion media were added with 2× final drug dilutions containing 25 μl/ml of CD3/CD28 T cell activator from StemCell Technologies. Cells were then incubated at 37° C. After 4 days, cells were counted and diluted 1 to 8-fold in expansion media and then transferred to a 24-well plate. Cell counts were repeated at day 7 and transferred to T25 flasks. On day 11, all cells were harvested and counted.

[3] = in vitro; details: human
Method: as §1

[4] = system: NALM6.GFP.LUC.CD19 target cells; assay: Serial killing assay of CAR-T, percent cytotoxicity by luciferase detection; details: in vitro at clinically relevant dose levels
Method: The percent cytotoxicity to NALM6.GFP.LUC.CD19 target cells was measured by luciferase detection at each round.
In one embodiment, a serial killing assay is a combination of cell killing and how long it takes for CAR T cells to get exhausted under repeated stimulation. In one embodiment, a serial killing assay is a surrogate measure for CAR T cell persistence in vivo.

[5] = system: NALM6.GFP.LUC.CD19 target cells; assay: Serial killing assay; type: cell-based, human
Method: CD19 CAR-T cells were thawed in RPMI media supplemented with HEPES, Penicillin/Streptomycin/L-Glutamine and 10% FBS and rested overnight. The following day, drugs were serially diluted and prepared in 96-well plates. Rested T cells were counted and normalized so that 25,000 or 8,333 T cells were plated with 25,000 NALM6.GFP.LUC.CD19 target cells (1:1 or 1:3 Effector:Target ratio) in the prepared 96-well plates. At 16 hour post-incubation and every 3-4 days, T cell killing of targets was measured via luciferase detection. D-luciferin substrate was added to the co-culture wells at a final concentration of 0.14 mg/mL and plates were incubated at 37° C. in the dark for 10 minutes. Luminescent signal was read immediately after in a VarioSkan™ LUX microplate reader. T cell-mediated cytotoxicity was calculated as follows: % Cytotoxicity=[1−luciferase signal of (sample of interest/target alone control)]*100. Afterwards, co-cultures were stained with LIVE/DEAD and antibodies against CD4, CD8 and KIP-1 and then washed. Cells were then analyzed and quantified via the Attune NxT flow cytometer. T cells were then repeatedly stimulated with fresh 25,000 target cells, and this process was repeated every 3-4 days.

[6] = system: phospho-STAT-1, -3 and -5 in purified CD14+ monocytes; assay: Intracellular phospho-STAT-1, -3, -5 by BD PhosphoFlow in purified monocytes; type: cell-based, human
Method: Further experiments were performed to look at impacts of JAK inhibitors on STAT phosphorylation in various immune cell subsets.

[7] = system: CD19 CAR T cells; assay: CAR T cell cytokine production (Luminex) under CD19 K562, KIP-1 or CD2/3/28 stimulation; details: for IC50: Homo sapiens, T-cell
Method: Cryopreserved healthy donor CLP CD19 CAR T cells were thawed and rested overnight in 100 U/ml of IL-2 at 1×10^6/ml. 2.5×10^5 CD19 CART cells were plated in 96-well RB plate wells in a total volume of 200 μl of R10 culture media. […] CD19 CART cell cytokine production was allowed to proceed through 72 hours in the presence of stimulator and JAKi or steroid. Following 72 h of culture, 100 μl of the cell supernatant of each well were harvested and stored at −80° C. for later Luminex/Bioplex-200 cytokine analysis. Briefly, stored supernatants were thawed and 50 μl of the sample was assayed for cytokines using a ThermoFisher Procarta Plex 19-plex human cytokine assay kit (ThermoFisher, Carlsbad, CA) according to kit manufacturer's instructions and detected using a BioRad Bioplex-200 instrument. The data points generated from the luminex cytokine assay were transferred to a GraphPad PRISM IC50 dose-response curve analysis to generate IC50 or potency values for the JAKi's and steroids tested.

[8] = cited from earlier work
[9] = E:T ratio 1:3, all doses tested
[10] = purified CD14+ monocytes, CAR T cell-derived supernatant, 30 min
[11] = purified CD14+ monocytes, rh-GM-CSF-induced
[12] = purified CD14+ monocytes, rhIFNg-induced
[13] = purified CD14+ monocytes, rhIL6-induced
[14] = purified monocytes, CAR T derived cytokines/supernatant stimulation, 30 min

O=C(Nc1nc2cccc(-c3ccc(CN4CCS(=O)(=O)CC4)cc3)n2n1)C1CC1 [filgotinib]
Mean tumor cell death (%) ([1]; E:T ratio 1:1, dose 250 nM): 96.89%
Mean tumor cell death (%) ([1]; E:T ratio 1:1, dose 500 nM): 97.54%
Mean tumor cell death (%) ([1]; E:T ratio 1:1, dose 1000 nM): 92.04%
Mean tumor cell death (%) ([1]; E:T ratio 1:3, dose 250 nM): 55.79%
Mean tumor cell death (%) ([1]; E:T ratio 1:3, dose 500 nM): 48.50%
Mean tumor cell death (%) ([1]; E:T ratio 1:3, dose 1000 nM): 35.36%
Mean tumor cell death (%) ([1]; E:T ratio 1:9, dose 250 nM): 20.47%
Mean tumor cell death (%) ([1]; E:T ratio 1:9, dose 500 nM): 14.82%
Mean tumor cell death (%) ([1]; E:T ratio 1:9, dose 1000 nM): 9.49%
% viability ([2]; dose 500 nM, day 4): 58.7%
% viability ([2]; dose 500 nM, day 8): 65.7%
% viability ([2]; dose 500 nM, day 12): 84.5%
% viability ([2]; dose 1000 nM, day 4): 73.1%
% viability ([2]; dose 1000 nM, day 8): 70.9%
% viability ([2]; dose 1000 nM, day 12): 81.6%
effect on T cell expansion ([2]; at the doses tested (Table 40)): little to no effect
viability at 0 day, 500 nM [3]: 75%
viability at 0 day, 1000 nM [3]: 75%
viability at 4 day, 500 nM [3]: 61.1%
viability at 4 day, 1000 nM [3]: 59.9%
viability at 8 day, 500 nM [3]: 78.9%
viability at 8 day, 1000 nM [3]: 85.1%
viability at 12 day, 500 nM [3]: 91.8%
viability at 12 day, 1000 nM [3]: 87.7%
effect on CAR T cells in cell killing, serial killing and T cell expansion assays [4]: not accompanied by a detrimental effect on CAR T cells
T-cell counts ([5]; E:T ratio 1:1): increased T-cell counts in a dose-dependent manner
serial killing ([5]; E:T ratio 1:1): enhanced serial killing
T-cell counts [5, 9]: no negative impacts were observed
serial killing [5, 9]: no negative impacts
IFN-gamma induction of pSTAT-1, 3 and 5 [6]: strongly suppressed
pSTAT-5 induction by GM-CSF ([6]; purified CD14+ monocytes): not inhibited
Monocyte-specific pSTAT1 signaling, inhibition [6, 10]: 91%
Monocyte-specific pSTAT3 signaling, inhibition [6, 10]: 100%
Monocyte-specific pSTAT5 signaling, inhibition [6, 10]: 0%
Monocyte-specific pSTAT1 signaling, inhibition [6, 11]: na/ni
Monocyte-specific pSTAT3 signaling, inhibition [6, 11]: na/ni
Monocyte-specific pSTAT5 signaling, inhibition [6, 11]: 0%
Monocyte-specific pSTAT1 signaling, inhibition [6, 12]: 100%
Monocyte-specific pSTAT3 signaling, inhibition [6, 12]: 100%
Monocyte-specific pSTAT5 signaling, inhibition [6, 12]: 98%
Monocyte-specific pSTAT1 signaling, inhibition [6, 13]: na/ni
Monocyte-specific pSTAT3 signaling, inhibition [6, 13]: 51%
Monocyte-specific pSTAT5 signaling, inhibition [6, 13]: na/ni
pSTAT-3 inhibition ([6]; purified monocytes stimulated by IL-6): 51%
pSTAT1 inhibition [6, 14]: 91%
pSTAT3 inhibition [6, 14]: 100%
suppression of cytokine production from CAR T cells (breadth and magnitude) [7]: less effective in the breadth of cytokines suppressed and its potency to suppress particular cytokines
Suppression of cytokine production, GMCSF (IC50) ([7]; CD3/CD28 stimulation, 72 h): Suppress
IC50 ([7]; 72 h, read-out: Suppression of cytokine production, GMCSF (IC50), K562-CD19 stimulation, 72 h): > 10000 nM
IC50 ([7]; 72 h, read-out: Suppression of cytokine production, GMCSF (IC50), KIP-1 stimulation, 72 h): 6440 nM
IC50 ([7]; 72 h, read-out: Suppression of cytokine production, GzB (IC50), CD3/CD28 stimulation, 72 h): 7650 nM
IC50 ([7]; 72 h, read-out: Suppression of cytokine production, GzB (IC50), K562-CD19 stimulation, 72 h): > 10000 nM
IC50 ([7]; 72 h, read-out: Suppression of cytokine production, GzB (IC50), KIP-1 stimulation, 72 h): > 10000 nM
IC50 ([7]; 72 h, read-out: Suppression of cytokine production, IFNg (IC50), CD3/CD28 stimulation, 72 h): > 10000 nM
IC50 ([7]; 72 h, read-out: Suppression of cytokine production, IFNg (IC50), K562-CD19 stimulation, 72 h): > 10000 nM
IC50 ([7]; 72 h, read-out: Suppression of cytokine production, IFNg (IC50), KIP-1 stimulation, 72 h): > 10000 nM
IC50 ([7]; 72 h, read-out: Suppression of cytokine production, IL-2Ra (IC50), CD3/CD28 stimulation, 72 h): 1890 nM
IC50 ([7]; 72 h, read-out: Suppression of cytokine production, IL-2Ra (IC50), K562-CD19 stimulation, 72 h): 4820 nM
IC50 ([7]; 72 h, read-out: Suppression of cytokine production, IL-2Ra (IC50), KIP-1 stimulation, 72 h): 277 nM
IC50 ([7]; 72 h, read-out: Suppression of cytokine production, IL-6 (IC50), CD3/CD28 stimulation, 72 h): 1710 nM
IC50 ([7]; 72 h, read-out: Suppression of cytokine production, IL-6 (IC50), KIP-1 stimulation, 72 h): 716 nM
IC50 ([7]; 72 h, read-out: Suppression of cytokine production, IL-8 (IC50), CD3/CD28 stimulation, 72 h): > 10000 nM
IC50 ([7]; 72 h, read-out: Suppression of cytokine production, IL-8 (IC50), K562-CD19 stimulation, 72 h): 543 nM
IC50 ([7]; 72 h, read-out: Suppression of cytokine production, IL-8 (IC50), KIP-1 stimulation, 72 h): 564 nM
IC50 ([7]; 72 h, read-out: Suppression of cytokine production, IL-10 (IC50), CD3/CD28 stimulation, 72 h): 2010 nM
IC50 ([7]; 72 h, read-out: Suppression of cytokine production, IL-10 (IC50), K562-CD19 stimulation, 72 h): 397 nM
IC50 ([7]; 72 h, read-out: Suppression of cytokine production, IL-10 (IC50), KIP-1 stimulation, 72 h): 191 nM
IC50 ([7]; 72 h, read-out: Suppression of cytokine production, MCP-1 (IC50), CD3/CD28 stimulation, 72 h): 563 nM
IC50 ([7]; 72 h, read-out: Suppression of cytokine production, MCP-1 (IC50), K562-CD19 stimulation, 72 h): 858 nM
IC50 ([7]; 72 h, read-out: Suppression of cytokine production, MCP-1 (IC50), KIP-1 stimulation, 72 h): 559 nM
IC50 ([7]; 72 h, read-out: Suppression of cytokine production, MIG (IC50), CD3/CD28 stimulation, 72 h): > 10000 nM
IC50 ([7]; 72 h, read-out: Suppression of cytokine production, MIG (IC50), K562-CD19 stimulation, 72 h): 1570 nM
IC50 ([7]; 72 h, read-out: Suppression of cytokine production, MIG (IC50), KIP-1 stimulation, 72 h): 1380 nM
IC50 ([7]; 72 h, read-out: Suppression of cytokine production, MIP-1a (IC50), CD3/CD28 stimulation, 72 h): > 10000 nM
IC50 ([7]; 72 h, read-out: Suppression of cytokine production, MIP-1a (IC50), K562-CD19 stimulation, 72 h): > 10000 nM
IC50 ([7]; 72 h, read-out: Suppression of cytokine production, MIP-1a (IC50), KIP-1 stimulation, 72 h): > 10000 nM
IC50 ([7]; 72 h, read-out: Suppression of cytokine production, MIP-1b (IC50), CD3/CD28 stimulation, 72 h): > 10000 nM
IC50 ([7]; 72 h, read-out: Suppression of cytokine production, MIP-1b (IC50), K562-CD19 stimulation, 72 h): 9820 nM
IC50 ([7]; 72 h, read-out: Suppression of cytokine production, MIP-1b (IC50), KIP-1 stimulation, 72 h): > 10000 nM
IC50 ([7]; 72 h, read-out: Suppression of cytokine production, Perforin (IC50), CD3/CD28 stimulation, 72 h): 5460 nM
IC50 ([7]; 72 h, read-out: Suppression of cytokine production, Perforin (IC50), K562-CD19 stimulation, 72 h): > 10000 nM
IC50 ([7]; 72 h, read-out: Suppression of cytokine production, Perforin (IC50), KIP-1 stimulation, 72 h): 2110 nM
IC50 ([7]; 72 h, read-out: Suppression of cytokine production, TNFa (IC50), CD3/CD28 stimulation, 72 h): 793 nM
IC50 ([7]; 72 h, read-out: Suppression of cytokine production, TNFa (IC50), K562-CD19 stimulation, 72 h): 7230 nM
IC50 ([7]; 72 h, read-out: Suppression of cytokine production, TNFa (IC50), KIP-1 stimulation, 72 h): 2240 nM
Suppression of cytokine production, IL-6 (IC50) ([7]; K562-CD19 stimulation, 72 h): Suppress
Cmax ([8]; clinical dosing, patient sera, repeat dose studies): 1200 ng/mL
Protein binding ([8]; plasma protein binding, reported): ~42%
